Assay results taken from publication PMC9460261, “Need for a Standardized Translational Drug Development Platform: Lessons Learned from the Repurposing of Drugs for COVID-19” (Microorganisms, 2022).
pEC50: −log10 of the molar value. Structures can show the parent of a compound that is named as a salt. Where two headings read alike, the source gives them in different places.

How the values were obtained:
[1] = tested on: SARS-CoV-2 in A549-Dual hACE2-TMPRSS2 cells; conditions: for pEC50: read-out: A549-Dual hACE2-TMPRSS2 cells Average EC50
[2] = tested on: SARS-CoV-2 in Human Airway Epithelia (HAE)
[3] = tested on: SARS-CoV-2 in A549-Dual hACE2-TMPRSS2 cells; assay: microbe, parasite or virus in culture; conditions: Severe acute respiratory syndrome coronavirus 2, read-out: A549-Dual hACE2-TMPRSS2 cells Average EC50

In the case of `COc1cc2c(c(OC)c1OC)-c1ccc(OC)c(=O)cc1[C@@H](NC(C)=O)CC2` [Colchicine, colchicine], the “Activity In Vitro; Potency EC50 or IC50 < 10 µM; A549 Cells” value (“Activity In Vitro” for short) [1] was “Yes ^T (key: Yes: Potency EC50 or IC50 < 10 µM; No: Potency EC50 or IC50 < 10 µM)” and the “Activity Ex Vivo Human Airway Epithelia (HAE)” value [2] was “No”.

For `CC(C)OC(=O)[C@H](C)N[P@](=O)(OC[C@H]1O[C@@H](n2ccc(=O)[nH]c2=O)[C@](C)(F)[C@@H]1O)Oc1ccccc1` [Sofosbuvir, sofosbuvir], the “Activity In Vitro” value [1] was “No (Potency EC50 or IC50 < 10 µM)”, the pEC50 [3] was < 4.30 and the “Activity Ex Vivo Human Airway Epithelia (HAE)” value [2] was “No”.

For `Cc1c(O)cccc1C(=O)N[C@@H](CSc1ccccc1)[C@H](O)CN1C[C@H]2CCCC[C@H]2C[C@H]1C(=O)NC(C)(C)C` [Nelfinavir, nelfinavir], the “Activity In Vitro” value [1] was “Yes (Potency EC50 or IC50 < 10 µM)”, the “Toxicity observed (^T), A549 Cells” value [1] was “Yes ^T” and the pEC50 [3] was 5.49. The “Activity Ex Vivo Human Airway Epithelia (HAE)” value [2] was “Yes” and the “Concentration showing activity / complete inhibition of viral replication in HAE” value [2] was 10 µM.

`COc1ccc2cc1Oc1ccc(cc1)C[C@H]1c3c(cc4c(c3Oc3cc5c(cc3OC)CCN(C)[C@@H]5C2)OCO4)CCN1C` [Cepharanthine, cepharanthine] was tested, and the “Activity In Vitro” value [1] was “No (Potency EC50 or IC50 < 10 µM)”, the pEC50 [3] was < 4.30 and the “Activity Ex Vivo Human Airway Epithelia (HAE)” value [2] was “No”.

With `CC1(C)C(=O)N(c2ccc(C#N)c(C(F)(F)F)c2F)C(=S)N1c1ccc(CCCc2ncco2)nc1` [Proxalutamide, proxalutamide] the “Activity In Vitro” value [1] was “No (Potency EC50 or IC50 < 10 µM)”, the pEC50 [1] was < 4.30 and the “Activity Ex Vivo Human Airway Epithelia (HAE)” value [2] was “No”.

In the case of ivermectin, the “A549-Dual hACE2-TMPRSS2 cells Average EC50” value [1] was “+NA”, the “Activity In Vitro” value [1] was “Yes (Potency EC50 or IC50 < 10 µM)” and the “Activity Ex Vivo Human Airway Epithelia (HAE)” value [2] was “Yes”.

For `CNCCC(Oc1ccc(C(F)(F)F)cc1)c1ccccc1` (stereo not drawn) [Fluoxetine, fluoxetine], the “Activity In Vitro” value [1] was “No (key: Yes: Potency EC50 or IC50 < 10 µM; No: Potency EC50 or IC50 < 10 µM)” and the “Activity Ex Vivo Human Airway Epithelia (HAE)” value [2] was “No”.

With `O=C(Nc1ncc([N+](=O)[O-])s1)c1ccccc1O` [Tizoxanide, tizoxanide] the pEC50 [3] was < 4.00.

For `CC(=O)Oc1ccccc1C(=O)Nc1ncc([N+](=O)[O-])s1` [Nitazoxanide, nitazoxanide], the “Activity In Vitro” value [1] was “No (Potency EC50 or IC50 < 10 µM)”, the pEC50 [3] was < 4.00 and the “Concentration showing activity / complete inhibition of viral replication in HAE” value [2] was 5 µM.

For bemnifosbuvir, the “Activity In Vitro” value [1] was “No (Potency EC50 or IC50 < 10 µM)”, the pEC50 [1] was < 4.30 and the “Activity Ex Vivo Human Airway Epithelia (HAE)” value [2] was “No”.

With `CN(C)C(=O)COC(=O)Cc1ccc(OC(=O)c2ccc(NC(=N)N)cc2)cc1` [Camostat mesylate, camostat mesylate] the “Activity In Vitro” value [1] was “No (Potency EC50 or IC50 < 10 µM)”, the pEC50 [3] was < 4.30 and the “Activity Ex Vivo Human Airway Epithelia (HAE)” value [2] was “Yes”. For the same molecule, the “Concentration showing activity / complete inhibition of viral replication in HAE” value [2] was 10 µM.

With `CC(=O)CCCCn1c(=O)c2c(ncn2C)n(C)c1=O` [Pentoxyfilline, pentoxyfilline] the “Activity In Vitro” value [1] was “No (Potency EC50 or IC50 < 10 µM)”, the pEC50 [3] was < 4.30 and the “Activity Ex Vivo Human Airway Epithelia (HAE)” value [2] was “No”.

`CC(C)/N=c1\cc2n(-c3ccc(Cl)cc3)c3ccccc3nc-2cc1Nc1ccc(Cl)cc1` [Clofazimine, clofazimine] was tested, and the “Activity In Vitro” value [1] was “Yes (Potency EC50 or IC50 < 10 µM)”, the “Toxicity observed (^T), A549 Cells” value [1] was “Yes ^T” and the pEC50 [3] was 5.62. For the same molecule, the “Activity Ex Vivo Human Airway Epithelia (HAE)” value [2] was “No”.

In the case of `Nc1c(Br)cc(Br)cc1CN[C@H]1CC[C@H](O)CC1` [Ambroxol, ambroxol], the “Activity In Vitro” value [1] was “No (Potency EC50 or IC50 < 10 µM)”, the pEC50 [3] was < 4.30 and the “Activity Ex Vivo Human Airway Epithelia (HAE)” value [2] was “No”.

With `COC(=O)N[C@H](C(=O)N1CCC[C@H]1c1nc(-c2ccc(-c3ccc(-c4c[nH]c([C@@H]5CCCN5C(=O)[C@@H](NC(=O)OC)C(C)C)n4)cc3)cc2)c[nH]1)C(C)C` [Daclatasvir, daclatasvir] the “Activity In Vitro” value [1] was “No (Potency EC50 or IC50 < 10 µM)”, the pEC50 [3] was < 4.30 and the “Activity Ex Vivo Human Airway Epithelia (HAE)” value [2] was “No”.

In the case of `NC(=O)c1nc(F)c[nH]c1=O` [Favipiravir, favipiravir], the “Activity In Vitro” value [1] was “No (Potency EC50 or IC50 < 10 µM)”, the pEC50 [3] was < 4.00 and the “Activity Ex Vivo Human Airway Epithelia (HAE)” value [2] was “No”.

In the case of `COC(=O)N[C@H](C(=O)N[C@@H](Cc1ccccc1)[C@@H](O)CN(Cc1ccc(-c2ccccn2)cc1)NC(=O)[C@@H](NC(=O)OC)C(C)(C)C)C(C)(C)C` [Atazanavir, atazanavir], the pEC50 [3] was 4.62.

In the case of `O=c1nc(NO)ccn1[C@@H]1O[C@H](CO)[C@@H](O)[C@H]1O` [EIDD-1931], the pEC50 [1] was 6.33.

For `OC(c1cc(C(F)(F)F)nc2c(C(F)(F)F)cccc12)C1CCCCN1` (stereo not drawn) [Mefloquine, mefloquine], the “Activity In Vitro” value [1] was “No (Potency EC50 or IC50 < 10 µM)”, the pEC50 [3] was < 4.30 and the “Activity Ex Vivo Human Airway Epithelia (HAE)” value [2] was “No”.

In the case of `CC(C)C(=O)OC[C@H]1O[C@@H](n2ccc(NO)nc2=O)[C@H](O)[C@@H]1O` [Molnupiravir, molnupiravir], the “Activity In Vitro” value [1] was “Yes (Potency EC50 or IC50 < 10 µM)”, the pEC50 [3] was 5.44 and the “Activity Ex Vivo Human Airway Epithelia (HAE)” value [2] was “Yes”. For the same molecule, the “Concentration showing activity / complete inhibition of viral replication in HAE” value [2] was 10 µM.

With `CC(C)(C)[C@H](NC(=O)C(F)(F)F)C(=O)N1C[C@H]2[C@@H]([C@H]1C(=O)N[C@H](C#N)C[C@@H]1CCNC1=O)C2(C)C` [Nirmatrelvir, nirmatrelvir] the “Activity In Vitro” value [1] was “Yes (Potency EC50 or IC50 < 10 µM)”, the “Activity Ex Vivo Human Airway Epithelia (HAE)” value [2] was “Yes” and the “Concentration showing activity / complete inhibition of viral replication in HAE” value [2] was 1 µM.

With `CCN(CC)Cc1cc(Nc2ccnc3cc(Cl)ccc23)ccc1O` [Amodiaquine, amodiaquine] the “Activity In Vitro” value [1] was “No (Potency EC50 or IC50 < 10 µM)”, the pEC50 [3] was < 4.30 and the “Activity Ex Vivo Human Airway Epithelia (HAE)” value [2] was “No”.

`CCCN(CCC)S(=O)(=O)c1ccc(C(=O)O)cc1` [Probenecid, probenecid] was tested, and the “Activity In Vitro” value [1] was “No (Potency EC50 or IC50 < 10 µM)”, the pEC50 [3] was < 4.30 and the “Activity Ex Vivo Human Airway Epithelia (HAE)” value [2] was “No”.

In the case of `COCCCC/C(=N\OCCN)c1ccc(C(F)(F)F)cc1` [Fluvoxamine maleate, fluvoxamine maleate], the “Activity In Vitro” value [1] was “No (key: Yes: Potency EC50 or IC50 < 10 µM; No: Potency EC50 or IC50 < 10 µM)”, the pEC50 [3] was 4.40 and the “Activity Ex Vivo Human Airway Epithelia (HAE)” value [2] was “No”.
